According to patent US20240043448A1, “Small Molecule Inhibitors of KRAS G12C Mutant” (Merck Sharp & Dohme LLC, priority 2019, published 2024):
Like-named read-outs stand apart in the source and are kept apart here.

Experiments:
[1] = target: Biotinylated KRAS G12C protein (Homo sapiens (Human), UniProt P01116, C118S/C51S/C80L/G12C); assay: SOS-catalyzed nucleotide exchange assay (TR-FRET); type: biochemical; conditions: in vitro apparent potency; preincubation time of 60 minutes prior to addition of SOS
Procedure: The SOS-catalyzed nucleotide exchange assay utilizes a preformed complex of recombinant biotinylated KRAS protein containing G12C/C51S/C80L/C118S mutations (183 amino acids; biotin on K10; leader sequence which is an AviTag; referred to as SEQ ID NO: 1 or “Biotinylated KRAS G12C protein” hereafter), Bodipy-GDP, and Terbium-streptavidin. Compounds are added to this complex and then after incubation for 60 minutes, the mixture is treated with recombinant SOS protein and unlabeled GTP. Small molecule inhibitors stabilize the Bodipy-GDP complex whereas the untreated protein rapidly exchanges Bodipy-GDP for unlabeled GTP resulting in reduced TR-FRET signal.
Biotinylated KRAS G12C protein (SEQ ID NO: 1) is diluted to 2 μM in an EDTA buffer (20 mM HEPES, 150 mM sodium chloride, 10 mM EDTA, and 0.01% Tween) and incubated at room temperature for one hour. This mixture is then further diluted to 90 nM in an assay buffer (20 mM HEPES, 150 mM sodium chloride, 10 mM magnesium chloride, and 0.005% Tween) containing 15 nM of Terbium-Streptavidin (Invitrogen, catalog #PV3577) and 900 nM of Bodipy-GDP and incubated at room temperature for six hours. This solution is referred to as Biotinylated KRAS G12C mixture.
Each test compound (10 mM stock in DMSO) is diluted in DMSO to make a 10-point, 3-fold dilution series in a 384-well low dead volume microplate (Labcyte, catalog #LP-0200). Once titrations are made, 10 nL of the diluted compounds is acoustically dispensed into a 384-well plate (Corning, catalog #3820) using an Echo 550 (Labcyte).
Each well of the plate receives 3 μL Biotinylated KRAS G12C mixture that had been incubating for six hours and 3 μL of assay buffer using a BioRAPTR (Beckman Coulter) and is incubated at room temperature for 60 minutes. Each well then receives 3 μL of 240 nM recombinant human SOS protein and 9 mM GTP (Sigma, G8877) in assay buffer and is incubated at room temperature for 60 minutes.
The time-resolved fluorescence resonance energy transfer signal of the plate is measured on an Envision (PerkinElmer) plate reader: Excitation filter=340 nm; emission1=495 nm; emission2=520 nm; dichroic mirror=D400/D505; delay time=100 μs. The signal of each well is determined as the ratio of the emission at 520 nm to that at 495 nm. Percent effect of each well is determined after normalization to control wells containing DMSO (no effect) or a saturating concentration of inhibitor (max effect). The apparent effect as a function of compound concentration is fit to a four parameter logistic equation.

phospho-ERK = assay: Cellular phospho-ERK assay; type: cell-based; conditions: NCI-H358 cells, 2 hour incubation, ratio of p-Erk vs total Erk, read-out: IC50 (nM) pERK (Cell)
Procedure: NCI-H358 cells (ATCC® CRL-5807™) were cultured in T150 flask in growth medium (RPMI medium 1640-GlutaMAX™-I (ThermoFisher Scientific 61870) containing 10% fetal bovine serum (ThermoFisher Scientific 10091148)). The cells were harvested in growth medium after TrypLE (ThermoFisher scientific 12604021) digestion and were seeded in a 384-well collagen coated cell culture plate (Corning 356702) at a density of 15,000 cells/well, and incubated at 37° C., 5% CO2 overnight. The compound dose-response titrations were prepared and appropriate amounts of compounds were dispensed in a 384-well intermediate plate using an Echo 550 liquid handler. RPMI medium 1640-GlutaMAX™-I were added to the intermediate plate and transferred to 384-well cell culture plate, which was incubated at 37° C., 5% CO2 for 2 hours. After removal of medium from the plate, cells were lysed in lysis buffer from Alpha SureFire® Ultra™ Multiplex p-Erk and total Erk assay kit (PerkinElmer MPSU-PTERK) containing Halt™ Protease and Phosphotase inhibitor cocktail (ThermoFisher Scientific 78446) at room temperature with constant shaking at 300 rpm for 30 minutes. The cell lysates were then transferred to OptiPlate-384 plate (PerkinElmer 6005620) and the phosphorylation of Erk and total Erk levels were detected by Alpha SureFire Ultra Multiplex p-Erk kit (PerkinElmer MPSU-PTERK) following the manufacturer's protocol. Assay plates were read on an EnVision Multimode Plate Reader (PerkinElmer), and the ratio of p-Erk vs total Erk in each well was used as the final readout. Dose response curves were analyzed using a 4-parameter logistic model to calculate IC50 values using spotfire software.

Chain of Biotinylated KRAS G12C protein (P01116 other isoform, or with tags, fused parts or gaps, stated change not applied): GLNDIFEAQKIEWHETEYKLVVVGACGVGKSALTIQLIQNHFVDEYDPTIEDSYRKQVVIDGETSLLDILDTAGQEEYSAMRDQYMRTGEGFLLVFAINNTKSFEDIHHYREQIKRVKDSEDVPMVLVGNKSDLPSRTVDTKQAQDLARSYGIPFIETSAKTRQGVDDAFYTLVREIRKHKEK

IC50 [1] | IC50 (phospho-ERK; Homo sapiens, NCI-H358, 2 h) | IC50 (phospho-ERK) | SMILES
7.2 nM | – | 27 nM | C=CC(=O)N1C[C@H](C)N(c2nc(=O)n3c4nc(c(F)cc24)-c2c(F)cccc2OCC(F)(F)COc2ccnc(C(C)C)c2-3)C[C@H]1C (single isomer, unassigned) [Example 13a]
2680 nM | 13900 nM | – | C=CC(=O)N1CCN(c2nc(=O)n3c4nc(c(F)cc24)-c2cccnc2OCCCOc2ccnc(C(C)C)c2-3)[C@@H](C)C1 (single isomer, unassigned) [Example 2a]
9.8 nM | – | 79 nM | C=CC(=O)N1CCN(c2nc(=O)n3c4nc(c(F)cc24)-c2c(F)cccc2OCCCCc2cnc(C(C)C)c-3c2)[C@@H](C)C1 (single isomer, unassigned) [Example 16a]

Second part, the compound before the results:

SMILES | IC50 [1] | IC50 (phospho-ERK; Homo sapiens, NCI-H358, 2 h) | IC50 (phospho-ERK)
C=CC(=O)N1C[C@H](C)N(c2nc(=O)n3c4nc(c(F)cc24)-c2cccc4cnn(c24)CCCCc2ccnc(C(C)C)c2-3)C[C@H]1C [Example 68, 2-[(2S,5R)-2,5-dimethyl-4-(prop-2-enoyl)piperazin-1-yl]-22-fluoro-6-(propan-2-yl)-10,11,12,13-tetrahydro-4H-1,20-(ethanediylidene)pyrido [4′,3′:12,13]pyrimido [1′,6′:1,2][1,3,7]triaza-cyclotridecino[5,6,7-hi] indazol-4-one] | 4.5 nM | 6.3 nM | –
C=CC(=O)N1C[C@@H](C)N(c2nc(=O)n3c4nc(c(Cl)cc24)-c2c(F)ccc(F)c2OCCOc2ccnc(C(C)C)c2-3)C[C@@H]1C [Example 51-1, (5aSa,17aRa)-20-Chloro-2-[(2S,5R)-2,5-dimethyl-4-(prop-2-enoyl)piperazin-1-yl]-14,17-difluoro-6-(propan-2-yl)-11,12-di[(^2H)hydro](11,12-^2H2)-4H-1,18-(ethanediylidene)pyrido[4,3-e]pyrimido[1,6-g][1,4,7,9]benzodioxadiazacyclododecin-4-one] | 1 nM | – | 13 nM
C=CC(=O)N1C[C@H](C)N(c2nc(=O)n3c4nc(c(F)cc24)-c2c(ccc(F)c2F)OCC2(CC2)Cc2ccnc(C(C)C)c2-3)C[C@H]1C [Example 92, 2′-[(2S,5R)-2,5-dimethyl-4-(prop-2-enoyl)piperazin-1-yl]-16′,17′,20′-trifluoro-6′-(propan-2-yl)-4′H,10′H,12′H-spiro[cyclopropane-1,11′-[13]oxa[3,5,7,19]tetraaza[1,18]ethenopyrido [4,3-e]pyrimido[1,6-g][1,7,9]benzoxadiazacyclododecin]-4′-one] | 0.71 nM | 12 nM | –
C=CC(=O)N1CC2CCC1CN2c1nc(=O)n2c3nc(c(F)cc13)-c1c(F)cccc1OCCCc1ccnc(C(C)C)c1-2 (stereo not drawn) [Example 105, 17,20-difluoro-6-(propan-2-yl)-2-[5-(prop-2-enoyl)-2,5-diazabicyclo[2.2.2]octan-2-yl]-11,12-dihydro-4H,10H-1,18-ethenopyrido[4,3-e]pyrimido[1,6-g][1,7,9]benzoxadiazacyclododecin-4-one] | 1910 nM | 3600 nM | –
C=CC(=O)N1CCN(c2nc(=O)n3c4nc(c(F)cc24)-c2cccc4cnn(c24)CCCc2ccnc(C(C)C)c2-3)[C@@H](C)C1 (single isomer, unassigned) [Example 117] | 17 nM | – | 44 nM
C=CC(=O)N1CC(C)N(c2nc(=O)n3c4nc(c(F)cc24)-c2c(F)ccc4cnn(c24)CCCCc2ccnc(C(C)C)c2-3)CC1C [Example 107, 2-[(2S,5R)-2,5-dimethyl-4-(prop-2-enoyl)piperazin-1-yl]-19,22-difluoro-6-(propan-2-yl)-10,11,12,13-tetrahydro-4H-1,20-(ethanediylidene)pyrido[4′,3′:12,13]pyrimido[1′,6′:1,2][1,3,7]triazacyclotridecino[5,6,7-hi]indazol-4-one] | 10 nM | – | 20 nM
C=CC(=O)N1CCN(c2nc(=O)n3c4nc(c(F)cc24)-c2c(F)ccc(F)c2OCCCCc2ccnc(C(C)C)c2-3)[C@@H](C)C1 [Example 79, 15,18,21-trifluoro-2-[(2S)-2-methyl-4-(prop-2-enoyl)piperazin-1-yl]-6-(propan-2-yl)-10,11,12,13-tetrahydro-4H-1,19-(ethanediylidene)pyrido[4,3-f]pyrimido[1,6-h][1,8,10]benzoxadiazacyclotridecin-4-one] | 2.6 nM | 7 nM | –
C=CC(=O)N1[C@H](C)CN(c2nc(=O)n3c4nc(c(F)cc24)-c2c(F)cccc2OCCCCc2ccnc(C(C)C)c2-3)C[C@@H]1C [Example 7, 2-[(3R,5S)-3,5-dimethyl-4-(prop-2-enoyl)piperazin-1-yl]-18,21-difluoro-6-(propan-2-yl)-10,11,12,13-tetrahydro-4H-1,19-ethenopyrido[4,3-f]pyrimido[1,6-h][1,8,10]benzoxadiazacyclotridecin-4-one] | 6.9 nM | – | 34 nM
C=CC(=O)N1CC(C)N(c2nc(=O)n3c4nc(c(Cl)cc24)-c2c(F)ccc(F)c2OCCOc2ccnc(C(C)C)c2-3)CC1C [Example 50, (5aSa,17aRa)-20-chloro-2-[(2S,5R)-2,5-dimethyl-4-(prop-2-enoyl)piperazin-1-yl]-14,17-difluoro-6-(propan-2-yl)-11,12-dihydro-4H-1,18-(ethanediylidene)pyrido[4,3-e]pyrimido[1,6-g][1,4,7,9]benzodioxadiazacyclododecin-4-one] | 1.1 nM | – | 4.4 nM
C=CC(=O)N1CCN(c2nc(=O)n3c4nc(c(F)cc24)-c2c(ccc(F)c2F)OCC(F)(F)CCc2ccnc(C(C)C)c2-3)CC1 [Example 65, 12,12,17,18,21-pentafluoro-6-(propan-2-yl)-2-[4-(prop-2-enoyl)piperazin-1-yl]-10,11,12,13-tetrahydro-4H-1,19-(ethanediylidene)pyrido[4,3-f]pyrimido[1,6-h][1,8,10] benzoxadiazacyclotri-decin-4-one] | 2.6 nM | 15 nM | –
C=CC(=O)N1CC(C)N(c2nc(=O)n3c4nc(c(F)cc24)-c2c(F)cccc2COCCc2ccnc(C(C)C)c2-3)CC1C [Example 115, 2-[(2S,5R)-2,5-dimethyl-4-(prop-2-enoyl)piperazin-1-yl]-17,20-difluoro-6-(propan-2-yl)-10,11-dihydro-1,18-ethenopyrido[3,4-e]pyrimido[6,1-c][9,2,4]benzoxadiazacyclododecin-4(13H)-one] | 237 nM | – | 1020 nM
C=CC(=O)N1C[C@@H]2C[C@H]1CN2c1nc(=O)n2c3nc(c(F)cc13)-c1c(F)cccc1OCCCCc1ccnc(C(C)C)c1-2 [Example 104, 18,21-difluoro-6-(propan-2-yl)-2-[(1S,4S)-5-(prop-2-enoyl)-2,5-diazabicyclo[2.2.1]heptan-2-yl]-10,11,12,13-tetrahydro-4H-1,19-ethenopyrido[4,3-f]pyrimido[1,6-h][1,8,10]benzoxadiazacyclotridecin-4-one] | 1470 nM | 8850 nM | –
